Here are results for one compound from patent publication US9119821B2, “Use of methionine sulfoximine to treat acute liver failure and other diseases caused by an inflammatory cytokine response” (priority 2010, dated 2015).

Where two headings read alike, the source gives them in different places.

For one series, the system named is MLP 29 cells. Briefly: Flow cytometry of apoptosis induced by TNF-α plus actinomycin D. Type of series: cell-based, mouse.
Series [1] deals with γ-glutamylcysteine synthetase (GGCS) (Mus musculus, UniProt P97494). The settings on record: liver extracts from LPS/D-GalN treated mice; 50 mg/kg; data not shown. The method, then: (§1) Tissue and plasma were collected from male mice, which were divided into two groups. One group was injected with saline three hours prior to LPS/D-GalN injections. The second group was given MSO three hours prior to being injected with LPS/D-GalN. Control mice (t=0) were treated with MSO or saline for 3 hours and then euthanized (not exposed to LPS/D-GalN). After LPS/D-GalN injection at time zero, tissue and plasma samples were collected at one-hour time intervals from 1 to 5 hours.
Sequence of γ-glutamylcysteine synthetase (GGCS) (P97494 whole entry): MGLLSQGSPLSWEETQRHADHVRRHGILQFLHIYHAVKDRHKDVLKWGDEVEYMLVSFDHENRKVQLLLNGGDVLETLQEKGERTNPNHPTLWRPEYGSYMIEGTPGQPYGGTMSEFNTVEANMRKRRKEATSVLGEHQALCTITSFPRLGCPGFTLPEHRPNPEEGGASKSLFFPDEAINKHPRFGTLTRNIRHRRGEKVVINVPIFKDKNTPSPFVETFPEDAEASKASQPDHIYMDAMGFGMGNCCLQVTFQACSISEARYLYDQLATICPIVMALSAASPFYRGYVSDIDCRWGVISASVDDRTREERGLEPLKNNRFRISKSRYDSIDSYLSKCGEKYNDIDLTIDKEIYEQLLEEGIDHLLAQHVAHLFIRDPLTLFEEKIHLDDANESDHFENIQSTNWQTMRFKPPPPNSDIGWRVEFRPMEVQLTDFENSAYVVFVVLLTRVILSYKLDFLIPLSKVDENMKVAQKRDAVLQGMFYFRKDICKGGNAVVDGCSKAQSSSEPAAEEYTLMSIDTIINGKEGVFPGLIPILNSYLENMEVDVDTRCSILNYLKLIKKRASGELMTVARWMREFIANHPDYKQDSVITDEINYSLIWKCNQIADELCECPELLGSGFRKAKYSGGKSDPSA
Sequence of γ-glutamylcysteine synthetase (GGCS) (O09172 whole entry partner): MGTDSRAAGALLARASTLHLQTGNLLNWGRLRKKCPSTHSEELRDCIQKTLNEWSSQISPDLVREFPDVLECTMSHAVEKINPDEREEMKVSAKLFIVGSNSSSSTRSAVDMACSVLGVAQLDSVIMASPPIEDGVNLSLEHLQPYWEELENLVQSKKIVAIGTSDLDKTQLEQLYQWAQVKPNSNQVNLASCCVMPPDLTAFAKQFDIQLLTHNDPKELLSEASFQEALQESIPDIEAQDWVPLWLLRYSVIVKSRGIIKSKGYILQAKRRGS
To analyze enzyme activities liver homogenates were prepared from liver tissue excised and immediately homogenized in ice-cold buffer consisting of 250 mM sucrose, 10 mM Tris and 0.1 mM EGTA with protease inhibitor cocktail (Sigma #P8340). The homogenized tissue was centrifuged at 2375×g for 5 min. […]
(§2) Glutamine synthetase was assayed as described by Meister, A. Glutamine synthetase from mammalian tissues. […] The reaction with the substrates glutamine and hydroxylamine was stopped using ferric chloride stop solution (0.37 M FeCl3, 0.67 M HCl, 0.20 M TCA) and the colorimetric product formed—γ-glutamyl hydroxamate—was measured at 535 nm. The absorbance values were converted to activities by comparison to a standard curve of pure glutamyl hydroxamate (a generous gift from Arthur J. Cooper, Department of Biochemistry and Molecular Biology, New York Medical College).

In a further series the target is T1, glutamine synthetase (Mus musculus, UniProt P15105).
T1 construct: liver homogenates were prepared from liver tissue excised and immediately homogenized; from tissue; host or cells: mouse liver homogenate supernatant
T1 sequence (P15105 2-373 limits assumed): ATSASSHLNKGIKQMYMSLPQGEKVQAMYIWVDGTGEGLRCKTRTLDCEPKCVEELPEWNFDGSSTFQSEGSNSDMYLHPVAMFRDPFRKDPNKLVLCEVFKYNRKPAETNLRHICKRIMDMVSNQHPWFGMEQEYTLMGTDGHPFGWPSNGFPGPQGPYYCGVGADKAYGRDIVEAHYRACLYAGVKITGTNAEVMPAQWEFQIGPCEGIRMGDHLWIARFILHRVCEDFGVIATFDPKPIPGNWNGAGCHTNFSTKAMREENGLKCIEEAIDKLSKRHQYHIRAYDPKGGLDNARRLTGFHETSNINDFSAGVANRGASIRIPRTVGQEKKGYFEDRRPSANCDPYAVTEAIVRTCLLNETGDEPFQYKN
Briefly: Glutamine synthetase activity in liver extracts of treated mice. In kind it is in vivo. As for the experimental part: as §1
To analyze enzyme activities liver homogenates were prepared from liver tissue excised and immediately homogenized in ice-cold buffer consisting of 250 mM sucrose, 10 mM Tris and 0.1 mM EGTA with protease inhibitor cocktail (Sigma #P8340). The homogenized tissue was centrifuged at 2375×g for 5 min. The tissue supernatant fraction was frozen on dry ice and stored at −80° C.
as §2

The next series deals with STAT1. The settings on record: liver homogenates, five hours after LPS/D-GalN. The method, then:
(§3) Immunoblots of cleaved caspase-3 and phospho-STAT proteins: Liver homogenates were prepared from male mice five hours after IP administration of LPS/D-GalN. […] Glyceraldehyde-3-phosphate dehydrogenase (GAPDH—Chemicon, Milano, Italy) was used as a loading control).

The next series relates to caspase-3. The settings on record: mouse, in vivo. The method, then:
as §3

In a further series the test system is STAT3. The settings on record: liver homogenates; both LPS/D-GalN treated and untreated mice. As for the experimental part:
as §3

For series [2] the following is noted: i.p. injection of 50 mg/kg.
The next series relates to peritoneal macrophages. The settings on record: 9 mM MSO, over the time course of the macrophage experiments. The method, then: Macrophages coordinate the early phases of LPS-induced inflammatory response, through the synthesis of TNF-α and other cytokines. In vitro experiments were conducted to directly test if MSO inhibits TNF-α production on LPS-stimulated macrophages obtained from mouse peritoneum. Macrophages were triggered with LPS with or without MSO, wherein the MSO was added either three hours before, one hour after, or at the same time as LPS. Four hours after LPS addition, TNF-α in the culture supernatant was quantitated by ELISA, as described in Methods.

The next series concerns IL-6. The settings on record: 3 hours after LPS/D-GalN; without MSO peak 401±14 at two hours.
Text: (§4) FIG. 6A, FIG. 6B, and FIG. 6C illustrate ELISA quantitation cytokine levels in plasma from LPS/D-GalN treated mice. The time zero values show the levels of each cytokine in negative control mice, not treated with LPS/D-GalN but injected with either saline (n=7) or MSO (n=7) three hours prior to be killed. […] For each cytokine, open circles represent cytokine levels in plasma isolated from mice pretreated with saline, and open diamonds represent cytokine levels in plasma isolated from mice pretreated with MSO prior to LPS/D-GalN treatment. FIG. 6A illustrates TNF-α levels. FIG. 6B illustrates IFN-γ levels. FIG. 6C illustrates IL-6 levels; and
as §1
(§5) Plasma was obtained by transferring blood to plasma separator tubes containing lithium heparin (BD Microtainer tubes). Plasma samples were immediately frozen on dry ice and stored at −80° C.
(§6) TNF-α, IFN-γ, and IL-6 ELISA kits were obtained from eBioscience, and experiments were performed using the manufacturer's guidelines for 96-well plate experiments. One hundred microliters of plasma was used per well.

In the next series the test system is TNF-α.
Text: as §4, §1, §5, §6

In another series the test system is IFN-γ.
Text: as §4, §1, §5, §6

Method for MLP 29 cells: Output of multiparametric FACS analyses. Mouse liver progenitor cells, MLP 29, are incubated for one hour with either no addition (first lane, FIG. 3C(a)), 9 mM MSO (second lane, FIG. 3C(b)), or 9 mM BSO (third lane, FIG. 3C(c)), then exposed for 10 hours to either no addition—(BAS, first column), TNF-α plus actinomycin D (second column), or actinomycin D alone (third column). Viable cells (V) are delimited by the quadrant. Apoptotic cells display mitochondrial depolarization (reduced TMRM staining) and/or expose phosphatidylserine on their surface (increased Annexin V-FITC staining). Propidium iodide-positive, i.e. dead cells (PI), are evaluated on a PI vs TMRM diagram (not shown); these cells are excluded from the reported plots, but the percentage of propidium iodide positive (i.e. dead) cells is shown in each box (PI), as is the percentage of viable cells (V);
Samples were analyzed on a FACSCalibur flow cytometer (Becton Dickinson, San Diego, Calif.). Data acquisition was performed using CellQuest software and data analysis with WinMD1 software. Each experiment was repeated at least four times.

Regarding `CS(=N)(=O)CC[C@H](N)C(=O)O` (stereo partly drawn) [MSO, methionine sulfoximine], in the series on MLP 29 cells, the “rescue of cells from apoptosis induced by TNF-α” value is listed as “neither MSO nor BSO could rescue cells”. In addition, the “GGCS activity versus saline pre-treated mice” value in series [1] is listed as “same GGCS activities as extracts from mice pre-treated with saline”. Also, the “glutamine synthetase activity relative to animals pre-treated with saline” value on glutamine synthetase (liver extracts, 50 mg/kg IP three hours prior to LPS/D-GalN, all time points) is given as “less than 10%”. Further, the “inhibition of glutamine synthetase in the liver” value at glutamine synthetase (long term MSO treatment) was 90%. Further, the “increase in STAT1 activation by LPS/D-GalN” value in the series on STAT1 is recorded as “eliminated”. In addition, the caspase-3 activation entry in the series on caspase-3 is listed as “completely prevented”. Moreover, the “phosphorylated STAT3” value with STAT3 is listed as “decreased”. Further, in series [2], the “lowering of plasma glutamine concentrations” value is listed as “about 50%”. In addition, the “effect on cell viability (trypan blue)” value in the series with peritoneal macrophages is given as “no effect”. Further, the “plasma IL-6 level, peak, mean ± SEM” value in the series with IL-6 was 325 ± 27 pg/mL. Moreover, the “plasma TNF-α level throughout the time course” value with TNF-α (1 to 5 hours after LPS/D-GalN) is under 200 pg/mL. The “plasma TNF-α level, peak, mean ± SEM” value in the series with TNF-α (1 hour after LPS/D-GalN, saline pretreated 590±91, p<0.001) was found to be 112 ± 35 pg/mL. For the same compound, in the series with TNF-α (t=0, injected three hours previously, not exposed to LPS/D-GalN, n=7), the “plasma TNF-α level in control mice” value is listed as “not detectable”. Besides, the “plasma IFN-γ level” value in the series on IFN-γ (1 hour after LPS/D-GalN, without MSO 0.84±0.25) came out at 0.19 ± 0.05 pg/mL; with IFN-γ (4 hours after LPS/D-GalN, without MSO 41±11, p 0.01), 5.0 ± 3.0 pg/mL.
